Experimental data published in paper PMC6018403 (Frontiers in Pharmacology, 2018).

Test system: Caco-2 cell monolayer
Test: Caco-2 cell monolayer permeability test (bidirectional transport of berberine)
Format: in vitro ADME, Human
Details: BER 5 μM
Method: The final concentration of GQD, GQD−GC, and Huang-Lian water extracts were 32, 28, and 6 μg/mL, respectively. […]
containing glucose (25 mM) and HEPES (10 mM). The final concentration of berberine was 5 µM. The final concentration of DMSO was below 1% (v/v). […]
inducer of Caco-2 cells, respectively. For the inhibitor experiments, the Caco-2 cells were cultivated in DMEM until the 21st day. After removal of the medium, the cells were incubated for 30 minutes with HBSS containing 5 µM of verapamil. For the inducer experiments, the cells were cultivated in DMEM until the 18th day, and then […]
was removed on the 21st day, and the cells were then incubated for 30 min with HBSS.
Berberine and glycyrrhizic acid were added to the system following HBSS incubation.
For all bidirectional transport assays, samples (300 µL) were collected after 30, 60, 90, […]
with an equal volume of HBSS. The samples were freeze-dried and then dissolved in 300 µL of methanol. The solutions were filtered through 0.22-µm membranes before […]
3. Inhibitor and inducer experiments […]
respectively. For the inhibition experiments, Caco-2 cells were cultivated in DMEM until the 21st day. After removal of the medium, the cells were incubated for 30 minutes with HBSS containing verapamil (5 µM). For induction experiments, the cells were cultivated in DMEM until the 18th day, and then cultivated in DMEM […]
The medium was removed on the 21st day, and the cells were then incubated for 30 min with HBSS. Berberine and glycyrrhizic acid were added to the system following HBSS incubation.

- transport rate of BER, PAB (influx, apical to basolateral) (with GLY 5 μM): 84%
- transport rate of BER, PBA (efflux) (with GLY 5 μM): 10%
- transport rate of BER, PAB (influx, apical to basolateral) (without GLY): 59%
- transport rate of BER, PBA (efflux) (without GLY): 34%
SMILES: COc1ccc2cc3[n+](cc2c1OC)CCc1cc2c(cc1-3)OCO2 [Compound 24, berberine]
